Results as given in publication PMC2912835 (Journal of Experimental & Clinical Cancer Research : CR, 2010).

Tests used:
[1] = tested on: Kit (hair depigmentation); design: method as in PMID 12966161; details: mice; cited from earlier work
[2] = tested on: Ba/F3 cells stably transfected with KIT AYins503-504; assay: cells; details: Mus musculus, BaF3, 24 h, read-out: IC50 of Stably Transfected Ba/F3 Cell Survival
Description: (§1) The ability of Kit mutants to act as survival factors was assessed in Kit-dependent Ba/F3 cells. Ba/F3 cells stably transfected with various KIT mutants were seeded in a 96-well tissue culture plate at a density of 5 × 10^3 cells per well. […] Cell viability was assessed by measuring the level of adenosine triphosphate using ATPlite assays (PerkinElmer Life Sciences, Boston, MA). Reconstituted ATPLite 1-step solution was added to each well followed by incubation with shaking for 2 minutes. The plate was read on a Victor Model 1420 multilabel counter (PerkinElmer Inc.) under the luminescence setting.

[3] = tested on: Ba/F3 cells stably transfected with KIT V560D/T670I; assay: cells; details: Mus musculus, BaF3, 24 h, read-out: IC50 of Stably Transfected Ba/F3 Cell Survival
Description: as §1

[4] = tested on: Ba/F3 cells stably transfected with KIT Δ552-559; assay: cells; details: Mus musculus, BaF3, 24 h, read-out: IC50 of Stably Transfected Ba/F3 Cell Survival
Description: as §1

[5] = tested on: Ba/F3 cells stably transfected with KIT V560D; assay: cells; details: Mus musculus, BaF3, 24 h, read-out: IC50 of Stably Transfected Ba/F3 Cell Survival
Description: as §1

[6] = tested on: Ba/F3 cells stably transfected with KIT Y823D; assay: cells; details: Mus musculus, BaF3, 24 h, read-out: IC50 of Stably Transfected Ba/F3 Cell Survival
Description: as §1

[7] = tested on: Ba/F3 cells stably transfected with KIT V560D/V654A; assay: cells; details: Mus musculus, BaF3, 24 h, read-out: IC50 of Stably Transfected Ba/F3 Cell Survival
Description: as §1

Kit = tested on: Kit; design: method as in PMID 16951187; details: biochemical assays; read-out: IC50, inhibition of Kit activity; cited from earlier work
[8] = tested on: Kit activity (hair depigmentation); assay: In vivo hair depigmentation assay (surrogate marker of Kit activity); details: female C57B6 mice
Description: Female C57B6 mice (6 to 8 weeks old; 20 to 30 g; Charles River Laboratories, Wilmington, MA) were anesthetized, and an area of skin 2 × 2 cm on the right flank was depilated. […] On day 21, photographs were taken for assessment of hair depigmentation. The same patch of skin was depilated again on day 28, and photographs for assessment of depigmentation were taken on day 35. All animal experimental procedures were conducted in accordance with the guidelines of the Amgen Animal Care and Use Committee and the Association for Assessment and Accreditation of Laboratory Animal Care standards.

Kit D816V mutant = target: T1, Kit D816V mutant (Homo sapiens, UniProt P10721, D816V); assay: Cell-based Kit autophosphorylation assay, D816V mutant; details: stably transfected CHO cells, up to 3000 nM
T1 construct: human wild-type KIT to yield full-length, mutant constructs; expressed in transfected cells; host or cells: AM-1/D CHO cells, stably transfected
Description: (§2) CHO cells stably transfected with wild-type or mutant isoforms of KIT were seeded in a 96-well tissue culture plate at a density of 2 × 10^4 cells per well. For stem cell factor (SCF) characterization experiments, cells were stimulated with serial dilutions of SCF for varying times. […] Cell lines transfected with activating KIT mutants were not stimulated with SCF in IC50 experiments. Cells were washed with phosphate-buffered saline and lysed in RIPA buffer (50 mM Tris, pH 7; 150 mM NaCl, 1% Igepal, 0.5% sodium deoxycholate, 0.1% SDS, 300 μM activated sodium vanadate, 1× protease inhibitor cocktail) for 30 minutes at 4°C with shaking. Cell lysates were added to a 96-well DELFIA microplate (PerkinElmer Inc.) coated with anti-Kit antibody (1 μg per well; AF332, R&D Systems, Inc.; Minneapolis, MN) and incubated for 2 hours. Lysates were then removed and the plate was washed 3 times with DELFIA wash buffer (PerkinElmer Inc.). […] The plate was then washed 3 times with DELFIA wash buffer before 0.01 μg of Eu-N1-labeled anti-mouse antibody (Cat. # AD0124, PerkinElmer Inc.) was added to each well. The plate was again incubated at room temperature for 1 hour and then washed 3 times with DELFIA wash buffer before the signal was detected by adding DELFIA enhancement buffer (PerkinElmer Inc.) to each well.

PDGFR = tested on: PDGFR; design: method as in PMID 16951187; details: biochemical assays; read-out: IC50, inhibition of PDGFR activity; cited from earlier work
Kit V560D/V654A mutant = target: T2, Kit V560D/V654A mutant (Homo sapiens, UniProt P10721, V560D/V654A); assay: Cell-based Kit autophosphorylation assay, V560D/V654A mutant; details: autophosphorylation IC50 […] nM versus […] nM
T2 construct: human wild-type KIT to yield full-length, mutant constructs; expressed in transfected cells; host or cells: AM-1/D CHO cells, stably transfected
Description: as §2

| Compound | Hair depigmentation [1] | IC50 [2] | IC50 [3] | IC50 [4] | IC50 [5] | IC50 [6] | IC50 [7] | IC50 (Kit) | Hair depigmentation of regrown hair ([8]; 75 mg/kg oral twice daily for 21 days after depilation, assessed day 21, vs vehicle) | Hair depigmentation of regrown hair after cessation of treatment ([8]; treatment stopped day 21, depilated again day 28, assessed day 35) | Inhibition of autophosphorylation of the D816V mutant (Kit D816V mutant) | IC50 (PDGFR) | Loss of activity, V560D/V654A double mutant compared with V560D alone (Kit V560D/V654A mutant) |
| --- | --- | --- | --- | --- | --- | --- | --- | --- | --- | --- | --- | --- | --- |
| CCN(CC)CCNC(=O)c1c(C)[nH]c(/C=C2\C(=O)Nc3ccc(F)cc32)c1C [sunitinib] | Depigmentation has previously been observed |  |  |  |  |  |  |  |  |  |  |  |  |
| CC1(C)CNc2cc(NC(=O)c3cccnc3NCc3ccncc3)ccc21 [Motesanib] |  | 0.011 µM | 0.18 µM | 0.0004 µM | 0.003 µM | 0.062 µM | 0.091 µM | […] | markedly depigmented | no apparent depigmentation | neither motesanib nor imatinib inhibited | 0.084 µM | fifteen-fold loss |
